# “Also recorded” adds a separate entry of the source.
# System: mice with gallstones formed due to a high-cholesterol diet
# Test: Treatment of cholesterol gallstones in mice with gallstones formed by a high-cholesterol (lithogenic) diet, 12 weeks of drug administration
# Format: in vivo, C57BL/6J male mice
# Description: An overall schematic diagram of the animal experiment is as illustrated in FIG. 1. This will be described below in more detail. C57BL/6J male mice were purchased from Central Lab. Animal Inc. The mice were allowed to have a 4-week compliance period under a condition of controlled light (a cycle of 12-hour light and 12-hour darkness in which darkness is from 6:30 pm to 6:30 am), temperature (22±4° C.), and humidity (50%±20%). The mice had ad libitum access to water (autoclaved distilled water) and were fed commercial feed (Scientific Animal Food & Engineering/+40RMM) containing 2.9% fat, 15.2% protein, and 60.7% carbohydrate. In addition, a lithogenic diet (DYET #102136; Dyets, Inc., Bethlehem, Pa., USA) containing cholesterol (10 g/kg) and cholic acid (5 g/kg) was given for 8 weeks, so that mice with gallstones formed due to a high-cholesterol diet were created.
# The mice with gallstones formed due to a high-cholesterol diet were divided into the following groups and experiments were conducted for 12 weeks:
# Each of the mice of the control group (1) was administered, using a sonde, 0.3 ml of a mixture of 0.75% Tween 80 and distilled water. The mice of the groups (2) to (4) were administered, using a sonde, a product obtained by diluting 12.5 mg/kg/day of UDCA and 51 mg/kg/day of omega-3 fatty acid in 0.75% Tween 80. […]
# After 12 weeks of drug administration, animals were sacrificed and gallbladder tissue was obtained. […] After the high-cholesterol diet, body weight and liver weight were measured; and after the normal diet and therapeutic agent administration, body weight and liver weight were measured (FIG. 2). […]
# The size of gall stones in the gallbladder tissue obtained in Example 1 was analyzed on the basis of FIG. 4 (FIGS. 5 and 6). […]
# Changes in the weight of liver gallstones after the high-cholesterol diet (base) and after the therapeutic agent administration were analyzed (FIGS. 7 and 8).
# [1] = Example 2, anatomical changes before and after 12 weeks of drug administration, normal diet
smiles,measurement,setting,value
"C[C@H](CCC(=O)O)[C@H]1CC[C@H]2[C@@H]3[C@@H](O)C[C@@H]4C[C@H](O)CC[C@]4(C)[C@H]3CC[C@]12C [UDCA, 3α,7β-dihydroxy-5β-cholanoic acid]",amount of gallstones after administration (FIG. 3),[1],insignificantly decreased
same,size of gallstones after administration (FIG. 3),[1],slightly decreased; also recorded: insignificant changes
same,"size of gallstones, analysed on the classification chart of FIG. 4 (FIGS. 5 and 6)","Example 3, after high-cholesterol diet vs after therapeutic agent administration",no change in size

# From US20200376003A1, “PHARMACEUTICAL COMPOSITION FOR PREVENTING OR TREATING CHOLESTEROL GALLSTONE COMPRISING URSODEOXYCHOLIC ACID (UDCA) AND OMEGA-3 FATTY ACID, AND PROCESS FOR PRODUCING THE SAME” (INDUSTRY-ACADEMIC COOPERATION FOUNDATION, YONSEI UNIVERSITY, priority 2019, published 2020)
